Data: patent EP4792822A1, “USE OF PEPTIDE AMIDE COMPOUND IN PREPARATION OF DRUG FOR […] AND VOMITING” (Haisco Pharmaceutical Group Co., Ltd., priority 2023, dated 2025)

Test system: subjects undergoing elective laparoscopic abdominal or gynaecological surgery under general anaesthesia
Experiment: Example 3: placebo-controlled dose study of compound 1 injection for the prevention of postoperation nausea and vomiting
Type: in vivo, patients
Details: for Complete response (CR) within 24 h after surgery: single intravenous bolus; for Significant nausea within 24 h after surgery: VAS score ≥ 4 cm; for subject satisfaction scores for PONV / time to the first occurrence of emesis (vomiting or retching) or administration of rescue treatment within 24 h after surgery: mean ± standard deviation
Procedure: Study period: Treatment duration: 24 h after surgery; Follow-up duration: 48 h after surgery
Protocol: This study was a multicentre, randomised, double-blind, placebo-controlled study. About 200 subjects undergoing elective laparoscopic abdominal or gynaecological surgery under general anaesthesia were planned to be enrolled and randomised at a 1 : 1 : 1 : 1 ratio into the compound 1-60 µg group (50 subjects), the compound 1-120 µg group (50 subjects), the compound 1-180 µg group (50 subjects), and the placebo group (50 subjects).
A single dose of the study drug was administered within 15 min before the end of surgery. The dosing regimen is as follows: Compound 1-60 µg group: A single dose of 60 µg of compound 1 injection was administered within 15 min before the end of surgery, via intravenous bolus injection, with an intravenous bolus injection time of not less than 30 s.
Compound 1-120 µg group: A single dose of 120 µg of compound 1 injection was administered within 15 min before the end of surgery, via intravenous bolus injection, with an intravenous bolus injection time of not less than 30 s.
Compound 1-180 µg group: A single dose of 180 µg of compound 1 injection was administered within 15 min before the end of surgery, via intravenous bolus injection, with an intravenous bolus injection time of not less than 30 s.
Placebo group: A single dose of placebo was administered within 15 min before the end of surgery, via intravenous bolus injection, with an intravenous bolus injection time of not less than 30 s.
Primary efficacy endpoint: Complete response (CR) rate at 24 h after surgery (CR is defined as no vomiting or retching and no use of rescue medication within 24 h after surgery).
Secondary efficacy endpoints: Proportion of subjects experiencing nausea after surgery; proportion of subjects experiencing significant nausea after surgery (significant nausea is defined as a VAS score ≥ 4 cm); proportion of subjects experiencing vomiting after surgery (vomiting [even with expulsion of a minimal amount of gastric contents] or retching [muscular movement of vomiting without expulsion of gastric contents]); proportion of subjects using rescue medication after surgery; time to the first occurrence of emesis (vomiting or retching) or administration of rescue treatment within 24 h after surgery, whichever occurs first; cumulative dosage of analgesic agents within 24 h after surgery; and subject and investigator satisfaction scores for PONV.
Safety endpoints: Incidence and severity of adverse events; and vital signs, 12-lead ECG, physical examination, and laboratory examinations.
Subjects who met all inclusion criteria and none of the exclusion criteria received a single dose of compound 1 injection or placebo within 15 min before the end of surgery (defined as the completion of the last suture of the wound).
The use of any antiemetic agents or agents with antiemetic effects, other than the study drug and rescue medications specified in the protocol, was prohibited from 24 h before the start of surgery (defined as the start of skin incision) to 24 h after the end of surgery. Prophylactic antiemetic treatment was prohibited.
Within 24 h after the end of surgery, if the subject experienced ≥ 1 episode of vomiting, retching, or nausea and complained of requiring antiemetic treatment, the subject received rescue antiemetic agents specified in the protocol after assessment by the investigator (tropisetron was the preferred rescue antiemetic agent; it was recommended that an initial intravenous dose of 2.5 mg be administered, followed by additional doses as needed, not to exceed 10 mg within 24 h). If tropisetron was insufficiently effective, other agents were used by the investigator in accordance with routine clinical practice.
Within 30 min after the end of surgery, a PCA pump containing morphine hydrochloride injection was initiated. Subjects self-administered analgesia by pressing the PCA pump when experiencing pain. […]

[1] = Example 3, compared with placebo

CC(=O)N1CC2(CCN(C(=O)[C@@H](CCCCN)NC(=O)[C@@H](CC(C)C)NC(=O)[C@@H](Cc3ccccc3)NC(=O)[C@H](N)Cc3ccccc3)CC2)C1 [Compound 1, (2R)-N-[(1R)-1-(2-acetyl-2,7-diazaspiro[3.5]nonane-7-carbonyl)-5-amino-pentyl]-2-[[(2R)-2-[[(2R)-2-amino-3-phenyl-propionyl]amino]-3-phenylpropionyl]amino]-4-methyl-pentanamide]
investigator satisfaction scores for PONV (60 µg group): 8.9 ± 1.84
Nausea within 24 h after surgery (60 µg group (N = 49)): 18 (36.7) n (%)
Use of rescue medication within 24 h after surgery (60 µg group (N = 49)): 7 (14.3) n (%)
Vomiting within 24 h after surgery (60 µg group (N = 49)): 12 (24.5) n (%)
Complete response (CR) within 24 h after surgery (60 µg group (N = 49)): 36 (73.5) n (%)
Significant nausea within 24 h after surgery (60 µg group (N = 49)): 9 (18.4) n (%)
subject satisfaction scores for PONV (60 µg group): 9.0 ± 1.89
time to the first occurrence of emesis (vomiting or retching) or administration of rescue treatment within 24 h after surgery (60 µg group): 18.3109 ± 9.6700 h
CR rate at 24 h after surgery, comparison among dose groups (120 µg group): highest CR rate
investigator satisfaction scores for PONV (120 µg group): 8.9 ± 1.71
Nausea within 24 h after surgery (120 µg group (N = 49)): 11 (22.4) n (%)
Use of rescue medication within 24 h after surgery (120 µg group (N = 49)): 6 (12.2) n (%)
Vomiting within 24 h after surgery (120 µg group (N = 49)): 8 (16.3) n (%)
Complete response (CR) within 24 h after surgery (120 µg group (N = 49)): 40 (81.6) n (%)
Significant nausea within 24 h after surgery (120 µg group (N = 49)): 7 (14.3) n (%)
subject satisfaction scores for PONV (120 µg group): 9.1 ± 1.52
time to the first occurrence of emesis (vomiting or retching) or administration of rescue treatment within 24 h after surgery (120 µg group): 20.1119 ± 8.4192 h
investigator satisfaction scores for PONV (180 µg group): 9.0 ± 1.39
Nausea within 24 h after surgery (180 µg group (N = 50)): 16 (32.0) n (%)
Use of rescue medication within 24 h after surgery (180 µg group (N = 50)): 8 (16.0) n (%)
Vomiting within 24 h after surgery (180 µg group (N = 50)): 9 (18.0) n (%)
Complete response (CR) within 24 h after surgery (180 µg group (N = 50)): 39 (78.0) n (%)
Significant nausea within 24 h after surgery (180 µg group (N = 50)): 11 (22.0) n (%)
subject satisfaction scores for PONV (180 µg group): 9.0 ± 1.65
time to the first occurrence of emesis (vomiting or retching) or administration of rescue treatment within 24 h after surgery (180 µg group): 19.7203 ± 8.7225 h
TEAEs leading to study withdrawal or death (Example 3): no TEAEs leading to study withdrawal or death were observed
TESAEs (treatment-emergent serious adverse events) (Example 3): No TESAEs (treatment-emergent serious adverse events) occurred
overall safety (Example 3): good overall safety
severity of TEAEs and ADRs (Example 3, all TEAEs and ADRs): Grade 1-2
incidence of ADRs [1]: slightly higher than that in the placebo group
overall incidence of TEAEs [1]: lower than that in the placebo group
proportion of subjects experiencing nausea, severe nausea, vomiting, and using rescue medication within 24 h after surgery, compared with placebo (each dose group): lower than that in the placebo group
complete response (CR) rate at 24 h after surgery, compared with placebo (each dose group (60, 120, 180 µg), P < 0.05): higher than that in the placebo group
PONV satisfaction scores of investigators, compared with placebo (each dose group, P < 0.05): higher than those in the placebo group
PONV satisfaction scores of subjects, compared with placebo (each dose group, P < 0.05): higher than those in the placebo group
time to the first occurrence of emesis (vomiting or retching) or administration of rescue treatment within 24 h after surgery, compared with placebo (each dose group, P < 0.05): later than that in the placebo group
